Source: US11596623B2, “Methods for treating virus infection or proliferation” (HOWARD UNIVERSITY, priority 2018, dated 2023)

Tests used:
RACK1 = biological target: T1, RACK1 (Homo sapiens, UniProt P63244); assay: RACK1 protein western blot in HSV-1 infected HEp-2 cells; assay type: cell-based; conditions: pre-treated 24 hours at 100 μM; 24 h after HSV-1 infection
T1 construct: endogenous in cells; host or cells: HEp-2 cells (human laryngeal carcinoma line), virus-infected
Description: The virus used in this diagram is an HSV-1 F strain expressing luciferase (R8411 mutant) under the control of the ICP27 promoter and was a gift from Prof. Bernard Roizman (University of Chicago). HEp-2 cells were grown to 80-90% confluency in Dulbecco's Modified Eagle's medium (DMEM) supplemented with 10% fetal calf serum (PCS) and 1% penicillin-streptomycin (PS) and fungicide. The HSV-1 virus and the indicated concentration of compound(s) were added and incubated for 24 h (A of FIG. 13 and B of FIG. 13) and for 48 h in panel C samples. The luciferase signals were imaged and quantified in a Perkin Elmer IVIS Spectrum Imaging system. […] Three replicates from two separate experiments were combined to generate the average and the standard error bar. […] The compound(s) inhibit Y248 phosphorylation of RACK1 protein.
Proteins were separated by SDS-PAGE (25 μg loaded in each lane), transferred to nitrocellulose membranes (Amersham Inc., Piscataway, N.J., USA), and blocked with 5% nonfat milk for 60 min at room temperature. Membranes were incubated overnight at 4° C. with primary antibody, followed by incubation with a horseradish peroxidase-coupled secondary antibody and detection with enhanced chemiluminescence (Pierce, Rockford, Ill., USA), according to standard methods. […]

RACK1A protein = assay: RACK1 protein expression under salt stress, western blot; assay type: in vivo; conditions: Arabidopsis lysates
Text: The abundant leaf protein Rubisco large subunit (RbcL) was used as a loading control for the blot. The 37 kD RACK1 band was absent from the genetic knockout of RACK1 plants (double mutant-rack1ab lane).
The reported positive expression of RACK1A protein under salt stress condition in Arabidopsis has led us to examine the RACK1A expression in the presence and absence of the inhibitor compounds during salt stresses. We determined that the RACK1A protein expression was specifically modulated by the inhibitor compounds when the lysates with salt or without salt in the presence and absence of the small compounds were probed with an antibody raised by using the full length RACK1A protein as antigen (Agrisera, Vännäs, Sweden, FIG. 2C). […] However, whether the effect of SD29-12 is Arabidopsis salt stress specific condition needs further experimental evidence. As the antibody cross-reacts with all three RACK1 isoforms in Arabidopsis, we used the double knockout (rack1ab) as a negative control on the blot (triple mutant is lethal at the early seedling stage). The large subunit of the abundant leaf protein rubisco (RbcL) was used as loading control for this blot. As the results support the in-silico based prediction, we set out to investigate the effect of the compounds on the mammalian RACK1 based virus proliferation.

Nn1c(S)nnc1-c1ccc(F)cc1 [SD-29]
production of RACK1 (RACK1): reduced the production of RACK1 | RACK1 protein expression under salt stress (RACK1A protein): inhibited RACK1 protein expression
